Data as given in ChEMBL document CHEMBL1201862, “PubChem BioAssay data set” (2004).
Each block holds one compound with its values, some of them ahead of it. The source made the active and inactive calls.

Columns and labels:
[1] = tested on: Streptococcus sp. 'group A'; experiment: growth inhibition of control SK(-) GAS strain, dose response, counter-screen for streptokinase expression inhibitor project, luminescence, kanamycin, BacTiterGlo, confirmation (AID 1900); type: functional, organism-based
[2] = tested on: Streptococcus; experiment: Group A Streptococcus viability loss, dose response, counter-screen for streptokinase expression inhibitor project, luminescence, BacTiterGlo (AID 1915); type: functional, organism-based;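 also: potency for reduction of bacterial viability or growth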
[3] = Luminescence Cell-Based Dose Retest to Confirm Inhibitors of Cancer Stem Cells. [Related pubchem assays (depositor defined):AID2717, AID2721]; type: functional; conditions: Homo sapiens
[4] = biological target: T1, Corticotropin-releasing factor receptor 2/Corticotropin-releasing factor-binding protein (Homo sapiens, UniProt P24387+Q13324); experiment: Dose Response confirmation of uHTS hits for small molecule antagonists of the CRF-binding protein and CRF-R2 receptor complex.; type: functional; conditions: read-out: IC50_Mean
T1 sequence (Q13324 whole entry): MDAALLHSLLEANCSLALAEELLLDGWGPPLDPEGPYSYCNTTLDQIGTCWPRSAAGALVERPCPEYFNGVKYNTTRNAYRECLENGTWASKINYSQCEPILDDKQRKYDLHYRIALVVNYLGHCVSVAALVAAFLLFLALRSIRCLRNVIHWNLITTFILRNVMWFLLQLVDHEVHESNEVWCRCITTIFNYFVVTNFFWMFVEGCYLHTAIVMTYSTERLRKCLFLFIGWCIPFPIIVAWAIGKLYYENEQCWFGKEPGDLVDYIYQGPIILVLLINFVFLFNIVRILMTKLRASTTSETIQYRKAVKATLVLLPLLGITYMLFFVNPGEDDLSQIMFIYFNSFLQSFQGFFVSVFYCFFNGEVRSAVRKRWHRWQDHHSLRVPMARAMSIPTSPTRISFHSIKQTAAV
T1 sequence (P24387 whole entry): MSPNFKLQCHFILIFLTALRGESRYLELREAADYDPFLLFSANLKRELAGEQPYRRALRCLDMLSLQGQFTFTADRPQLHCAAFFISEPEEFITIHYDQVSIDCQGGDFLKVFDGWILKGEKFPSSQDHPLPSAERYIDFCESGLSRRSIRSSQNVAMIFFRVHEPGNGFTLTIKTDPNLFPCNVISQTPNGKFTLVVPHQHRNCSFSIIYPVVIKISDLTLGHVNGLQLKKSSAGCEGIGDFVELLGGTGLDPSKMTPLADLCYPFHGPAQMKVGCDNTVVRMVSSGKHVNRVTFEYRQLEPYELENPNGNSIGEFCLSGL

[5] = biological target: T1, Corticotropin-releasing factor receptor 2/Corticotropin-releasing factor-binding protein; experiment: activators of CRF receptor 2 with binding protein – uHTS hits, confirmation (AID 602473); type: functional; conditions: read-out: EC50_Mean
[6] = biological target: Cytochrome P450 2D6 (Homo sapiens, UniProt P10635);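 also: CYP2D6 member of a cytochrome P450 panel assay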
Chain of Cytochrome P450 2D6 (P10635 whole entry): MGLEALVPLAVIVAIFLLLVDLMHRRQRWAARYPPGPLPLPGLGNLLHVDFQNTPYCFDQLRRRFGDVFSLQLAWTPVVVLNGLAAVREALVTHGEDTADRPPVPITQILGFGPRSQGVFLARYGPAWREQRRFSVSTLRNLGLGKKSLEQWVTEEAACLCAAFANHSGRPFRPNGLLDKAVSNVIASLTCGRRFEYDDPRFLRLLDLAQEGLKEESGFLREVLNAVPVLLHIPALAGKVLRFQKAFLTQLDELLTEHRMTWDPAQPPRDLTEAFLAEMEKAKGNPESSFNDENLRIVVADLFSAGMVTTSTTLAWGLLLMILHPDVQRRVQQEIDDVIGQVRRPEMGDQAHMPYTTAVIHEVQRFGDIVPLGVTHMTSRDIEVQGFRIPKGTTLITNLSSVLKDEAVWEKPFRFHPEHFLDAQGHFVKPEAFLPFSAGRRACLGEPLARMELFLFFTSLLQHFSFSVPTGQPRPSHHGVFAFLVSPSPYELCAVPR

[7] = biological target: T2, Cytochrome P450 1A2 (Homo sapiens, UniProt P05177);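 also: PubChem cytochrome P450 panel assay, CYP1A2 panel member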
T2 sequence (P05177 whole entry): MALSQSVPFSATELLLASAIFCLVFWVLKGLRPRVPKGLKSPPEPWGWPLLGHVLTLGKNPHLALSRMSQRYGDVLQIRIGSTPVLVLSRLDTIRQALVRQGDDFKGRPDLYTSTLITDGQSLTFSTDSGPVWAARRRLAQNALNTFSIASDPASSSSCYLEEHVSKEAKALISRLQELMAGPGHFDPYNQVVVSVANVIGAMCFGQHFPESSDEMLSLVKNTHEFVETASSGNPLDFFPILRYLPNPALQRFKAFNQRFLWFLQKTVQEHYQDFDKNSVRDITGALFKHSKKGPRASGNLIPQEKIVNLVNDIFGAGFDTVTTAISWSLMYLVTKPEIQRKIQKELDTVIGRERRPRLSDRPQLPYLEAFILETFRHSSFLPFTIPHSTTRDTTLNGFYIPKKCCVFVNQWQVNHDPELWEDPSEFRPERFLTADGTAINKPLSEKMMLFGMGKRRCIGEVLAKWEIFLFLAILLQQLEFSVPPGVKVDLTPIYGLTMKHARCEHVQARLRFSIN

[8] = biological target: T3, Rac GTPase-activating protein 1 (Homo sapiens, UniProt Q9H0H5); experiment: MgcRacGAP GTPase-activating activity inhibitors, confirmation, biochemical, ADP Hunter fluorescence, primary and confirmatory (AID 624330); type: functional
T3 sequence (Q9H0H5 whole entry): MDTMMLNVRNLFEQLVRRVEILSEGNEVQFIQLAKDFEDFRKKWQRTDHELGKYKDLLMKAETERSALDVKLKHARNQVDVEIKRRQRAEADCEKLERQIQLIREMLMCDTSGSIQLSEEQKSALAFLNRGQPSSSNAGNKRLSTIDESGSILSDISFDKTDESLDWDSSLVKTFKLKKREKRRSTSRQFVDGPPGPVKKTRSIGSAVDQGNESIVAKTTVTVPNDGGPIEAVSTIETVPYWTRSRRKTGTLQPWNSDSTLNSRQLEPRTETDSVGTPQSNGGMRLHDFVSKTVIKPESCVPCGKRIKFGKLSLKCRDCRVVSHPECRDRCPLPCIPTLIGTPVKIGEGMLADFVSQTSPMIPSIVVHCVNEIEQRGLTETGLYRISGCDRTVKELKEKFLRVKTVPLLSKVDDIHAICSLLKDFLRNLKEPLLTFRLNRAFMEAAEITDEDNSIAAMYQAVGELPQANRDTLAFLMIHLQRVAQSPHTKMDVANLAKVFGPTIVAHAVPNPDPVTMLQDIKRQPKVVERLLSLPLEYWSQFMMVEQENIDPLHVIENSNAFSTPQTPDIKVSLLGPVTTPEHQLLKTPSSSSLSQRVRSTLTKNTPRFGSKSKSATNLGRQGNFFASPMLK

[9] = biological target: Cytochrome P450 2C9 (Homo sapiens, UniProt P11712)
Chain of Cytochrome P450 2C9 (P11712 whole entry): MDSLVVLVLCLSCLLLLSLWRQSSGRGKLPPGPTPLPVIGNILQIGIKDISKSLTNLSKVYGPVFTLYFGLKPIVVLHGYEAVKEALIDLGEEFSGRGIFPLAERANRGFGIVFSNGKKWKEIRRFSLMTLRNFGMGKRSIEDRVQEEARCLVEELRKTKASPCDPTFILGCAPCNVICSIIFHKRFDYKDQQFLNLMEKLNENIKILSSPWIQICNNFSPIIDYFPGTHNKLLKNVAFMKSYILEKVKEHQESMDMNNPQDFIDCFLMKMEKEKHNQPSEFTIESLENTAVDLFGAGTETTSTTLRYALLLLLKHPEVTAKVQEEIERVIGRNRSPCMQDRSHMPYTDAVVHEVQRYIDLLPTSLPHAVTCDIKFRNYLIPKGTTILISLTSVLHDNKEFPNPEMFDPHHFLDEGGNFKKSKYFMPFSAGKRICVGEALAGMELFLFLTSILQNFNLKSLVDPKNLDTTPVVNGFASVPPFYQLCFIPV

[10] = tested on: INS1; experiment: beta cell apoptosis inhibitors, cytokine rescue, dose response, luminescence, retest (AID 449756); type: functional, cell-based; conditions: Rattus norvegicus;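 also: cell death triggered by IL-1 beta plus TNF-alpha plus IFN-gamma mixture; protective hits raise ATP signal compared with cytokine alone wells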
[11] = biological target: Cytochrome P450 3A4 (Homo sapiens, UniProt P08684);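 also: CYP3A4 tested as one member of a cytochrome P450 panel screen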
Chain of Cytochrome P450 3A4 (P08684 whole entry): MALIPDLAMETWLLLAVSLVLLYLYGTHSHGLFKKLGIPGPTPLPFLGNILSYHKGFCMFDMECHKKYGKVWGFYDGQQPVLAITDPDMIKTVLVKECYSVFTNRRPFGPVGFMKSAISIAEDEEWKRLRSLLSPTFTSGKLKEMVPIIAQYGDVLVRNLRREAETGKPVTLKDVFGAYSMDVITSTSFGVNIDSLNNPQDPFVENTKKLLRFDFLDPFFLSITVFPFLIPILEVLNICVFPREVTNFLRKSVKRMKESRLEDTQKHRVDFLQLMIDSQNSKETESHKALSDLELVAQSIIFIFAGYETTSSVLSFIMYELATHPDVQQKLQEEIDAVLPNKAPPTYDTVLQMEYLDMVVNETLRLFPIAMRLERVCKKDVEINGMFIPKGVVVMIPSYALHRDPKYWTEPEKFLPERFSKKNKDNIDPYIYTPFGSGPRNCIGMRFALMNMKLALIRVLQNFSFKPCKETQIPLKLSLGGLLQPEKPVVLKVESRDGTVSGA

[12] = biological target: Cytochrome P450 2C19 (Homo sapiens, UniProt P33261); experiment: Cytochrome panel assay with activity outcomes. Panel member name: p450-cyp2c19 Compounds with AC50 equal or less than 10 uM are considered active; type: functional; conditions: read-out: AC50
Chain of Cytochrome P450 2C19 (P33261 whole entry): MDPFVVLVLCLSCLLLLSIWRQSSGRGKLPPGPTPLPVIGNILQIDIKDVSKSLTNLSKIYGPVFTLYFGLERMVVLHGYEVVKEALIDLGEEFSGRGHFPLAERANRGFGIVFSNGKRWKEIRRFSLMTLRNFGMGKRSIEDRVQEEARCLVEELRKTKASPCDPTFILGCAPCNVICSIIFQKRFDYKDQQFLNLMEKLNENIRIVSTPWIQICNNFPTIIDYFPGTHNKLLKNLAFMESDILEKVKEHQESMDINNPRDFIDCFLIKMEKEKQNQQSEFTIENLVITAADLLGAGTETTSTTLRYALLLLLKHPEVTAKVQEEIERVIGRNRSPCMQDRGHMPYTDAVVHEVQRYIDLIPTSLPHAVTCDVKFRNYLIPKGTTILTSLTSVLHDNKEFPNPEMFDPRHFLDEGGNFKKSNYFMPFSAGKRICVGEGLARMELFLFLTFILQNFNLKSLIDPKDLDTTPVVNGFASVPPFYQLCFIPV

Structure (SMILES): FC(F)(F)c1cc(CCN2C(S)=NC[C@@H]2CC2CCCCC2)cc(C(F)(F)F)c1
EC50 [1]: 5.13 µM (active)
EC50 [2]: > 150 µM (not active)
AC50 [3]: 5.79 µM (active)

Structure (SMILES): Cc1cccc(-c2cc3nc4c(c(NCc5ccco5)n3n2)CCCC4)c1
AC50 [3]: 7.11 µM (active)

IC50 [4]: > 47.1 µM (inactive)
EC50 [5]: > 53 µM (inactive)
Structure (SMILES): Cc1c(Cl)c([N+](=O)[O-])nn1CCCC(=O)Nc1cc(Oc2ccccc2)cc([N+](=O)[O-])c1

AC50 [6]: 5.01 µM (inconclusive)
AC50 [7]: 15.8 µM (inconclusive)
Structure (SMILES): CCC/C=C(\CCC)C(NC(=O)Cc1ccccc1)c1ccc(C(=O)OC)cc1 (configuration not stated)

IC50 [8]: 24.5 µM (active)
AC50 [9]: 39.8 µM (inconclusive)
Structure (SMILES): COc1ccc2oc(=O)c(C(=O)Oc3ccc(NC(C)=O)cc3)cc2c1

AC50 [6]: 3.16 µM (inconclusive)
AC50 [7]: 5.62 µM (inconclusive)
Structure (SMILES): O=C(COc1cccc(NC(=O)c2cccc([N+](=O)[O-])c2)c1)c1ccc(Br)cc1

IC50 [4]: > 47.1 µM (inactive)
EC50 [5]: > 53 µM (inactive)
Structure (SMILES): Cc1nn(C)cc1CN(C)C(=O)c1ccc(OC2CCN(Cc3ccccn3)CC2)cc1

Structure (SMILES): CC(=O)Oc1ccc(-c2csc(Nc3cccc(C)n3)n2)cc1
AC50 [3]: 6.58 µM (active)

IC50 [4]: > 47.1 µM (inactive)
EC50 [5]: > 53 µM (inactive)
Structure (SMILES): Cc1ccc(Cl)cc1N(CC(=O)N1CCOCC1)S(C)(=O)=O

Structure (SMILES): Cc1c(C(=O)Nc2nc(-c3ccccn3)cs2)oc2ccccc12
AC50 [10]: 5.62 µM (active)

IC50 [8]: 102 µM (active)
Structure (SMILES): COc1ncnc2c1ncn2CCCNc1ccc(C)c(C)c1

IC50 [8]: 118 µM (active)
Structure (SMILES): COc1ccc(N)cc1NC(=O)CN1CCOCC1

Structure (SMILES): O=C(c1cc(-c2cccc(Cl)c2)nc2ccccc12)N1CCN(c2ccccn2)CC1
AC50 [10]: 14.8 µM (active)

IC50 [8]: 75.4 µM (active)
Structure (SMILES): Cc1ccc(OCCN2CCN(C)CC2)c([N+](=O)[O-])c1

Structure (SMILES): Cc1ccc(S(=O)(=O)N2CCN(C(=O)COc3ccc(NC(=O)c4ccco4)cc3)CC2)cc1
AC50 [3]: > 195 µM (inactive)

IC50 [4]: > 47.1 µM (inactive)
EC50 [5]: > 53 µM (inactive)
Structure (SMILES): CC(=O)NCc1ccc(C(=O)O)cc1

AC50 [7]: 25.1 µM (inconclusive)
AC50 [9]: 25.1 µM (inconclusive)
Structure (SMILES): CC(C)(C)OC(=O)NCCc1nnc(SCC(=O)Nc2cccc(Cl)c2)o1

IC50 [8]: 30.9 µM (active)
AC50 [11]: 14.1 µM (inconclusive)
AC50 [9]: 0.0224 µM (inconclusive)
Structure (SMILES): OCCN(/C=N/C1=NN(c2cccc(C(F)(F)F)c2)CC1)CCO

Structure (SMILES): O=c1c2ccccc2nc(/C=C/c2ccccc2)n1-c1ccccc1O
AC50 [3]: 4.57 µM (active)

IC50 [8]: 163 µM (active)
Structure (SMILES): COc1ccccc1CNCC(=O)NCc1ccc(C)cc1

IC50 [4]: > 47.1 µM (inactive)
EC50 [5]: > 53 µM (inactive)
Structure (SMILES): CCOC(=O)c1cc2c(=O)c3cc(C)ccc3oc2nc1C

Structure (SMILES): O=c1cc(N2CCCCC2)c(-c2ccccc2)nn1Cc1ccc(Cl)cc1
AC50 [3]: 2.33 µM (active)

Structure (SMILES): COc1cc2c(cc1O)[C@H]1Cc3ccc(OC)c(O)c3CN1CC2
AC50 [12]: 7.94 µM (inconclusive)
AC50 [7]: 15.8 µM (inconclusive)
AC50 [11]: 12.6 µM (inconclusive)

IC50 [4]: > 47.1 µM (inactive)
EC50 [5]: > 53 µM (inactive)
Structure (SMILES): CC1C(=O)N(Cc2cn(CCC3OCCCO3)nn2)CCS(=O)(=O)N1Cc1ccc(-c2ccc(Cl)cc2)cc1 (configuration not stated)

IC50 [4]: > 47.1 µM (inactive)
EC50 [5]: > 53 µM (inactive)
Structure (SMILES): CN(C)C(=O)C1CC(=O)OC12CCCCC2 (configuration not stated)

Structure (SMILES): CCOc1ccc(C(=O)CCC(=O)N2CCN(c3ccc(O)cc3)CC2)cc1
AC50 [3]: 5.57 µM (active)

IC50 [4]: > 47.1 µM (inactive)
EC50 [5]: > 53 µM (inactive)
Structure (SMILES): CC(C)CN(CC(C)C)C(=O)CCCC(=O)N(CC(C)C)CC(C)C

IC50 [4]: > 47.1 µM (inactive)
EC50 [5]: > 53 µM (inactive)
Structure (SMILES): Cc1ccnc(NC(=O)c2cccc(S(=O)(=O)N3CCCC3)c2)c1

IC50 [4]: > 47.1 µM (inactive)
EC50 [5]: > 53 µM (inactive)
Structure (SMILES): COc1ccc(CCNC(=O)C(=O)NCC2OCCN2S(=O)(=O)c2ccc(OC)cc2)cc1 (configuration not stated)

IC50 [4]: > 47.1 µM (inactive)
EC50 [5]: > 53 µM (inactive)
Structure (SMILES): O=C(NCC1CCCO1)c1onc(CSc2cccc3ccccc23)c1C(=O)O (configuration not stated)

IC50 [8]: 75.2 µM (active)
Structure (SMILES): COc1ccc(NC2CCCN(C(=O)c3cccc(N4CCNC4=O)c3)C2)cc1 (configuration not stated)

IC50 [4]: > 47.1 µM (inactive)
EC50 [5]: > 53 µM (inactive)
Structure (SMILES): Cc1onc(-c2ccccc2)c1C(=O)N/N=C/c1cc(Br)c(Br)o1

Structure (SMILES): C=C(CC[C@@H](O)C(C)(C)O)[C@H]1CC[C@]2(C)[C@@H]1CC[C@@H]1[C@@]3(C)CCC(=O)C(C)(C)C3CC[C@]12C (some centres not stated)
AC50 [3]: 1.75 µM (active)

IC50 [4]: > 47.1 µM (inactive)
EC50 [5]: > 53 µM (inactive)
Structure (SMILES): CCC(CC)NC(=O)CC(c1ccccc1)c1ccccc1

IC50 [8]: 19.4 µM (active)
Structure (SMILES): Nc1ccc2[nH]c(S)nc2c1

IC50 [8]: 108 µM (active)
Structure (SMILES): COc1ccc(N2CCC(CN=C(S)Nc3cc(C)cc(C)c3)C2)cc1 (configuration not stated)

IC50 [8]: 117 µM (active)
Structure (SMILES): CCN(Cc1ccncc1)Cc1ccc(OC)cc1OC

AC50 [6]: 20 µM (inconclusive)
AC50 [7]: 20 µM (inconclusive)
Structure (SMILES): O=C(Oc1ccccc1)N1CCC[C@@]2(CCN(c3ccncc3)C2)C1

AC50 [6]: 39.8 µM (inconclusive)
AC50 [7]: 6.31 µM (inconclusive)
AC50 [9]: 3.16 µM (inconclusive)
Structure (SMILES): CCC/C=C(\CCC)C(NS(=O)(=O)c1ccc(-c2ccccc2)cc1)c1ccc(C(=O)OC)cc1 (configuration not stated)

Structure (SMILES): COc1ncnc(OC)c1S(=O)(=O)Nc1ccc(C(F)(F)F)cc1
AC50 [10]: > 260 µM (inactive)

Structure (SMILES): CC(C)(C)OC(=O)NCc1ccc(NC(=O)c2[nH]cnc2C(=O)NCCCNC(=O)c2nc[nH]c2C(=O)Nc2ccc(CNC(=O)OC(C)(C)C)cc2)cc1
AC50 [3]: 1.75 µM (active)
